The values that follow come from article PMC7684578, “Isopedopeptins A–H: Cationic Cyclic Lipodepsipeptides from Pedobacter cryoconitis UP508 Targeting WHO Top-Priority Carbapenem-Resistant Bacteria” (ACS Chemical Biology, 2020).

Holding throughout (assay type): cell-based
One experiment relates to HepG2 cells. The experiment in a line: In vitro cytotoxicity, fluorometric microculture cytotoxicity assay. To be noted: Homo sapiens, HepG2 liver, 72 h. Here is the method:
(§1) 10^8 CFU/mL) with turbidity assessed using a Sensititre Nephelometer (Trek Diagnostics Systems Ltd, UK). 50 µL of this bacterial suspension was transferred to 10 mL of MHII broth to give a final bacterial concentration ≅ 5 × 10^5 CFU/mL (acceptable range 3 – 7 × 10^5 CFU/mL). 50 µL of bacterial suspension was pipetted into each well (except the medium control well, where 50 µL MHII was pipetted). Final volume in each well was 100 µL. Plates were covered and incubated without shaking for 18-20 h at 35 °C ± 2 °C. MIC was read visually, as complete inhibition of growth by the unaided eye, using the medium-only wells as the control. Each compound was assayed at least in duplicate.
(§2) Additionally, the MIC for compound 2 against clinical carbapenem-resistant strains of A. baumannii […]
(§3) determined at the Public Health Agency of Sweden (according to EUCAST recommendations).
(§4) In vitro Cytotoxicity Determination. In vitro cytotoxicity was determined by a fluorometric microculture cytotoxicity assay,7 based on hydrolysis of fluorescein diacetate to fluorescein by cells with intact plasma membranes. In short, HepG2 cells (hepatocellular carcinoma cells, ATCC), in Eagle's Minimum Essential Medium (ATCC) supplemented with 10 % fetal bovine serum, penicillin/streptomycin (100 U/100 µg/mL) and 2 mM L-glutamine, were seeded in 384-well assay plates at a density of 1000 cells/well. The cells were incubated over night at 37°C and compounds in 10 mM DMSO were added, to obtain final concentrations 64 µM – 0.25 µM in two-fold dilutions.
After incubation for 72 h at 37°C, the cells were pelleted and washed. Fluorescein diacetate was added (1 µL, 0.5 mg/mL) and the fluorescence [485 nm(exc)/530 nm(em.)] was measured after 50 min at 37°C. Bortezomib (2 µM) was used as positive control and dose response testing of doxorubicin (top concentration 2 µM) was performed repeatedly to follow assay performance over time. Cytotoxicity was assessed after 72 h with cell survival presented as survival index (SI, %) defined as fluorescence in test wells in percent of control cultures with blank values subtracted.
Criteria for a successful assay include a signal-to-noise ratio in control cultures >10, CV <30% and a 7 Lindhagen, E., Nygren, P., and Larsson, R. (2008) The fluorometric microculture cytotoxicity assay. Nat. […]
positive control (Bortezomib) SI of <5%. The half maximal inhibitory concentration (IC50) was determined from log concentration-effect curves using non-linear regression analysis.
Frequency of resistance (FoR). For the determination of the FoR, the MIC of compound 2 was first evaluated on solid MH-agar medium prepared in 35 mm diameter plates. Each plate contained 4 mL agar with the appropriate amount of compound. Bacterial cultures were grown and prepared as described for the MIC assay. 13 µL of bacterial culture diluted to 0.5 MacFarland was inoculated into 1 mL 0.9% NaCl resulting in ~2 × 10^6 CFU/mL. 5 µL of this bacterial suspension was spotted onto the surface of each agar plate (~10^4 CFU/spot). Plates were sealed and incubated at 37°C for 18–20 hours. Agar MIC was recorded according to CLSI guidelines as the lowest concentration of […]
faint haze caused by the inoculum. Then 9 cm plates were prepared with 25 mL MHII agar medium containing 4 × or 8 × solid MIC concentrations of test compounds and seeded with 100 µL of a bacterial preparation, concentrated by centrifugation from overnight cultures and resuspended in 0.9% NaCl, corresponding to 108 CFU and 109 CFU per plate, and spread on the agar using 4–5 glass beads of 4 mm diameter. Since CFU were evaluated using the McFarland turbidity standard, the exact CFU number plated was evaluated by plating of serial dilutions of each inoculum preparation on MHII agar plates. Plates were incubated at 37°C and colonies were counted at 24 h and 48 h post-plating. The frequencies of resistance were then calculated by counting the number of validated resistant colonies growing on antibiotic preparations divided by the evaluated number of CFU in the inoculum. […]

In another experiment the test system is A. baumannii. The experiment in a line: MIC, extended panel, broth micro-dilution in MHII (EUCAST/CLSI). As to conditions: Acinetobacter baumannii. As for the experimental part: (§5) Plates were, subsequently, incubated at 37 °C in the dark, and viable colonies counted after 16 to 24 h.
(§6) To estimate MIC values (concentration range between 0.05 and 50 µg/mL), solutions of the tested compounds (100, 10 and 1 and if needed 0.1 µg/mL in MeOH) were dispensed into wells of microtiter plate(s) and the solvent was evaporated in a fume-hood. Subsequently, suspensions of pathogen cells in the appropriate medium were dispensed to the wells of microtiter plates and the growth of pathogens were observed after 16 to 20 h of incubation at 37 °C in the dark. Positive controls were the respective pathogen cells suspended in untreated sterile media without addition of compounds(s) and negative controls were the media only. MIC values were defined as the lowest concentration of each compound with no visible growth of pathogen. All MIC tests were performed in triplicate and […]
(§7) MIC determination for compound 2 against an extended panel of bacterial strains.
(§8) Compound 2 was evaluated against a panel of Gram-negative bacteria (Hughes strain collection), including: A. baumannii ATCC 19606, wild-type; BM4454, multidrug-resistant clinical isolate; BM4652, efflux-defective derivative of BM4454; CH9622, colistin-resistant clinical isolate; E. coli ATCC 25922, wild-type; CH3130, efflux-defective ΔtolC mutant isogenic to ATCC 25922; D22, a drug-hypersensitive lpxC mutant of E. coli; CH3491, multidrug-resistant clinical isolate; CH9623 and CH9624, colistin-resistant clinical isolates carrying mcr-1; K. pneumoniae ATCC 13833, wild-type; […]
(§9) clinical isolate; CH9625 and CH9626, colistin-resistant clinical isolates; P. aeruginosa PAO1, wild-type; PAO750, efflux-defective mutant isogenic to PAO1. The in vitro antimicrobial activity of each compound was determined by measuring the MIC value using the broth micro-dilution technique in cation-adjusted Mueller-Hinton II broth (Becton-Dickinson, 212322) according to EUCAST and CLSI guidelines. Each compound prepared in MHII medium was dispensed into a 96-well round-bottomed microtiter plate to give final assay concentrations from 64 µg/mL down to 0.25 µg/mL (two-fold dilution series in 10 wells, plus two control wells: medium control with no bacteria or compound, and growth control with bacteria added but no compound). Bacteria were prepared from fresh colonies grown on non-selective MHII agar, then suspended in saline to 0.5 McFarland (≅ 1.5 × […]
as §1, §2, §3, §4
(§10) After incubation for 72 h at 37°C, the cells were pelleted and washed. Fluorescein diacetate was […]

The next experiment has as its system K. pneumoniae. The experiment is described as above. To be noted: Klebsiella pneumoniae. Here is the method: as §5, §6, §7, §8, §9, §1, §2, §3, §4, §10

Each structure is given as a SMILES string. In brackets after ≈: the same amount, converted by molar mass. Like-named read-outs stand apart in the source and are kept apart here. Starred links: 1 amine or outer side, 2 acyl side, 3 side chain; linkers in the order of their positions; H or OH if unused. Positions of bridges follow the written chain, without caps; N, C: chain ends. Non-standard residues stand in square brackets, D forms with d. Residues, ends and D or L forms follow the SMILES beside them. X4 = CC(C)CCC=CCCC[C@H](CC(=O)[*:1])O[*:2]; X6 = CC(C)CCCCC=CC[C@H](CC(=O)[*:1])O[*:2]; X5 = CC(C)CCCCCCC[C@H](CC(=O)[*:1])O[*:2]; X3 = CC(C)CCCCC[C@H](CC(=O)[*:1])O[*:2]; X7 = CCCCCCC=CC[C@H](CC(=O)[*:1])O[*:2]; X2 = CCCCCCC[C@H](CC(=O)[*:1])O[*:2]; Val(3-OH) = CC(C)(O)[C@H](N)C(=O)O; X1 = C/C=C(/N[*:1])C(=O)[*:2]; Dab = NCC[C@H](N)C(=O)O; Dap = NC[C@H](N)C(=O)O

For the compound `C/C=C1/NC(=O)[C@H](CCN)NC(=O)[C@H](CC(C)C)NC(=O)[C@H](CN)NC(=O)C[C@@H](CCCCCC(C)C)OC(=O)[C@H](CC(=O)O)NC(=O)[C@H](C(C)(C)O)NC(=O)[C@@H](Cc2ccccc2)NC(=O)[C@H](CN)NC(=O)[C@H]([C@@H](C)O)NC1=O` [Compound 1, cyclo(3-hydroxy-9-methyldecanoyl-DAPA1-Leu-DABA-ABA-Thr-DAPA2-Phe-OHVal-Asp)] ([Dap]L[Dab][X1]T[Dap][dF][Val(3-OH)]D; linker N-C via X3), the IC50 worked out at 29 µM with HepG2 cells (read-out: IC50(μM) HepG2) and 33 µg/mL with HepG2 cells (read-out: IC50(μg/mL) HepG2).
As for `C/C=C1/NC(=O)[C@H](CCN)NC(=O)[C@H](CC(C)C)NC(=O)[C@H](CN)NC(=O)C[C@@H](CCCCCCC)OC(=O)[C@H](CC(=O)O)NC(=O)[C@H](C(C)(C)O)NC(=O)[C@@H](Cc2ccccc2)NC(=O)[C@H](CN)NC(=O)[C@H]([C@@H](C)O)NC1=O` [Compound 2, isopedopeptin B] ([Dap]L[Dab][X1]T[Dap][dF][Val(3-OH)]D; linker N-C via X2), the IC50 in the experiment on HepG2 cells (read-out: IC50(μM) HepG2) came to 50 µM; with HepG2 cells (read-out: IC50(μg/mL) HepG2), 56 µg/mL. The MIC with A. baumannii (ATCC19606, WT, read-out: MIC A. baumannii ATCC19606) is 8 µg/mL (≈ 7.16 µM); in the experiment with A. baumannii (Col (colistin-resistant), read-out: MIC A. baumannii EN0287), 8 µg/mL (≈ 7.16 µM); with A. baumannii (MDR clinical, read-out: MIC A. baumannii BM4454) it was 8 µg/mL (≈ 7.16 µM); in the experiment with A. baumannii (read-out: MIC A. baumannii BM4652, efflux-defective derivative of BM4454), 8 µg/mL (≈ 7.16 µM); with A. baumannii (read-out: MIC colistin-resistant strains of A. baumannii, strains not named) it was no less than 8 µg/mL; in the experiment on K. pneumoniae (ATCC13833, WT, read-out: MIC K. pneumoniae ATCC13833), 4 µg/mL (≈ 3.58 µM). Further, the MIC was 4 µg/mL (≈ 3.58 µM) in the experiment on K. pneumoniae (Col, read-out: MIC K. pneumoniae CH9625); 4 µg/mL (≈ 3.58 µM) in the experiment with K. pneumoniae (Col, read-out: MIC K. pneumoniae CH9626); 8 µg/mL (≈ 7.16 µM) with K. pneumoniae (ESC, CARBA, CIP, GEN, AMK, SXT, TET, clinical multidrug-resistant, read-out: MIC K. pneumoniae CH3498); 8 µg/mL (≈ 7.16 µM) in the experiment with K. pneumoniae (WT, read-out: MIC K. pneumoniae 1161486); 8 µg/mL (≈ 7.16 µM) in the experiment with K. pneumoniae (read-out: MIC K. pneumoniae 1161486a, ΔtolC mutant isogenic to 1161486); no less than 4 µg/mL in the experiment on K. pneumoniae (read-out: MIC colistin-resistant strains of K. pneumoniae, strains not named).
For the compound `C/C=C1/NC(=O)[C@H](CCN)NC(=O)[C@H](CC(C)C)NC(=O)[C@H](CN)NC(=O)C[C@@H](CC=CCCCCCC)OC(=O)[C@H](CC(=O)O)NC(=O)[C@H](C(C)(C)O)NC(=O)[C@@H](Cc2ccccc2)NC(=O)[C@H](CN)NC(=O)[C@H]([C@@H](C)O)NC1=O` [Compound 3, isopedopeptin C] ([Dap]L[Dab][X1]T[Dap][dF][Val(3-OH)]D; linker N-C via X7), the IC50 in the experiment with HepG2 cells (read-out: IC50(μM) HepG2) worked out at 29 µM; in the experiment on HepG2 cells (read-out: IC50(μg/mL) HepG2) it was 33 µg/mL.
Consider `C/C=C1/NC(=O)[C@H](CCN)NC(=O)[C@H](CC(C)C)NC(=O)[C@H](CN)NC(=O)C[C@@H](CCCCCCC)OC(=O)[C@H](CC(=O)O)NC(=O)[C@H](C(C)C)NC(=O)[C@@H](Cc2ccccc2)NC(=O)[C@H](CN)NC(=O)[C@H]([C@@H](C)O)NC1=O` [Compound 4, isopedopeptin D] ([Dap]L[Dab][X1]T[Dap][dF]VD; linker N-C via X2), for which the IC50 with HepG2 cells (read-out: IC50(μM) HepG2) came to 9 µM; in the experiment with HepG2 cells (read-out: IC50(μg/mL) HepG2), 10 µg/mL.
For `C/C=C1/NC(=O)[C@H](CCN)NC(=O)[C@H](CC(C)C)NC(=O)[C@H](CN)NC(=O)C[C@@H](CCCCCC(C)C)OC(=O)[C@H](CC(=O)O)NC(=O)[C@H](C(C)C)NC(=O)[C@@H](Cc2ccccc2)NC(=O)[C@H](CN)NC(=O)[C@H]([C@@H](C)O)NC1=O` [Compound 5, Isopedopeptin E] ([Dap]L[Dab][X1]T[Dap][dF]VD; linker N-C via X3) the same measures were 13 µM and 14 µg/mL.
The matching figures for `C/C=C1/NC(=O)[C@H](CCN)NC(=O)[C@H](CC(C)C)NC(=O)[C@H](CN)NC(=O)C[C@@H](CCCCCCCC(C)C)OC(=O)[C@H](CC(=O)O)NC(=O)[C@H](C(C)(C)O)NC(=O)[C@@H](Cc2ccccc2)NC(=O)[C@H](CN)NC(=O)[C@H]([C@@H](C)O)NC1=O` [Compound 6, Isopedopeptin F] ([Dap]L[Dab][X1]T[Dap][dF][Val(3-OH)]D; linker N-C via X5): 9 µM and 10 µg/mL.
Take `C/C=C1/NC(=O)[C@H](CCN)NC(=O)[C@H](CC(C)C)NC(=O)[C@H](CN)NC(=O)C[C@@H](CCCC=CCCC(C)C)OC(=O)[C@H](CC(=O)O)NC(=O)[C@H](C(C)C)NC(=O)[C@@H](Cc2ccccc2)NC(=O)[C@H](CN)NC(=O)[C@H]([C@@H](C)O)NC1=O` [Compound 7, Isopedopeptin G] ([Dap]L[Dab][X1]T[Dap][dF]VD; linker N-C via X4): the IC50 in the experiment with HepG2 cells (read-out: IC50(μM) HepG2) was found to be 11 µM; in the experiment with HepG2 cells (read-out: IC50(μg/mL) HepG2), 13 µg/mL.
For `C/C=C1/NC(=O)[C@H](CCN)NC(=O)[C@H](CC(C)C)NC(=O)[C@H](CN)NC(=O)C[C@@H](CC=CCCCCC(C)C)OC(=O)[C@H](CC(=O)O)NC(=O)[C@H](C(C)C)NC(=O)[C@@H](Cc2ccccc2)NC(=O)[C@H](CN)NC(=O)[C@H]([C@@H](C)O)NC1=O` [Compound 8, Isopedopeptin H] ([Dap]L[Dab][X1]T[Dap][dF]VD; linker N-C via X6) the same measures were 14 µM and 16 µg/mL.
